According to PMC11272598, “RG7774 (Vicasinabin), an orally bioavailable cannabinoid receptor 2 (CB2R) agonist, decreases retinal vascular permeability, leukocyte adhesion, and ocular inflammation in animal models” (Frontiers in Pharmacology, 2024):

How the values were obtained:
[1] = target: Mouse CB1R (Mus musculus, UniProt P47746); assay: Mouse cAMP assay in N18TG2 cells; type: cell-based; design: inhibition at 0.1 µM: reference not given here; conditions: N18TG2, read-out: Mean ± SEM % inhibition of control, Mouse CB1R (cAMP assay)
Description: The effect of RG7774 on the forskolin-stimulated accumulation of cAMP was determined using the LANCE ULTRAcAMP kit (PerkinElmer Life Sciences, MA, USA), according to the manufacturer’s instructions. Briefly, N18TG2 cells preincubated for 30 min with 1-methyl-3-isobutylxanthine (1 mM) were added to 0.5 µM forskolin preincubated with or without RG7774 for 15 min. Reactions were incubated for 30 min at 37°C and Time-resolved fluorescence was measured using a Victor V Multilabel counter (PerkinElmer Life Sciences). Data were transformed into cAMP concentrations using a standard curve.

[2] = test system: Human DAGL; assay: Human DAGL assay (HaCaT cells); type: biochemical; conditions: positive control 10 µM
Description: (§1) Mouse brain or human HaCaT cells (CLS Cell Lines Service, GmbH, Eppelheim, Germany) were homogenized in 50 mM Tris-HCl (pH 7.4) using a glass potter, and homogenates were centrifuged at 4°C sequentially at 800 g (10 min) and 10,000 g (30 min). The final pellet (80–200 µg) was resuspended in 50 mM Tris-HCl (pH 7.4) containing 10 mM CaCl2 and incubated at 37°C for 30 min with sn-1[^14C]-stearoyl-2-arachidonoyl-glycerol (100 µM) (ARC, MO, USA). Reactions were stopped by adding chloroform/methanol (2:1, v/v), and the organic phase was dried and fractionated by thin-layer chromatography on silica gel, as previously reported. Levels of 1[^14C]-stearoyl acid radioactivity were determined by cutting the appropriate band from the gel and analyzing using a β-scintillation counter. Mouse cells were preincubated for 15 min with RG7774 (10 µM) and added to the incubation medium. Human cells were preincubated for 15 min with 8 different concentrations of RG7774 (0.1-500 µM) and added to the incubation medium. Control experiments were carried out in the presence of the selective DAGL inhibitor, D053 (10 µM).

[3] = test system: Mouse DAGL; assay: Mouse DAGL assay (brain); type: biochemical; conditions: positive control 10 µM
Description: as §1

[4] = target: T1, Human MAGL (Homo sapiens, UniProt Q99685); assay: Human MAGL assay (U937 cell extracts); type: biochemical; conditions: positive control 100 nM
T1 construct: Mouse brain or human U937 cell extracts (ATCC, Manassas, VI, USA); host or cells: U937 cells, 100,000 g supernatant
Description: The final supernatant was incubated with [^3H]-2-OG (10 µM) (ARC, MO, USA) at 37°C for 30 min as previously described, and reactions were stopped with a 2:1 (v/v) mixture of chloroform/methanol. [^3H]-glycerol release in the aqueous phase was measured by scintillation counting. […] Human supernatant (100 µg) was preincubated for 15 min at RT with 8 different concentrations of RG7774 (0.1-500 µM) in the incubation medium.

[5] = target: T2, Human 5-LOX (Homo sapiens, UniProt P09917); assay: Human 5-LOX assay; type: biochemical; conditions: positive control 100 µM
T2 construct: purchased Cayman Chemical Company #60402
Description: (§2) The inhibitory effects of different concentrations of RG7774 (0.1-500 µM) on the activities of human recombinant 5-LOX (Cayman Chemical Company #60402), 15-LOX (Cayman Chemical Company #10011263), and human platelet-derived 12-LOX were determined using the Biovision Lipoxygenase Activity Assay Kit (#BVN-K978-100). This kit converts the LOX substrate to an intermediate that reacted with the probe, generating a fluorescent product. The effect of RG7774 (preincubated for 15 min) at 10 µM on LOXs (5-LOX: 0.5 or 1.2 µg; 12-LOX: 20 µg; 15-LOX: 0.23 or 0.3 µg) was ascertained by adding the compounds directly to the incubation medium and the fluorescent signal, recorded at excitation/emission 500/536 nm at 30 sec intervals for 30-40 min, was directly proportional to LOX activity. […] The percentage of human 5-, 12-, and 15-LOX activity (control) was estimated from the amount of oxidized probe in the reaction using a standard curve.

[6] = target: T3, Human 12-LOX (Homo sapiens, UniProt P18054); assay: Human 12-LOX assay; type: biochemical; conditions: positive control 100 µM
T3 construct: human platelet-derived 12-LOX; from tissue; host or cells: human platelets
Description: as §2

[7] = test system: Human EMT; assay: Human EMT activity (HaCaT cells); type: cell-based; conditions: positive control 40 µM
Description: HaCaT cells were seeded (350,000–400,000 cell/well) in triplicate in 12-well plates and incubated for 15 min in PBS at 37°C with [^3H]-N-arachidonoylethanolamine ([^3H]-AEA) (400 nM) (ARC, MO, USA), as previously reported. Experiments were repeated at 4°C in order to subtract passive diffusion from EMT-mediated uptake. RG7774 (10 µM) was preincubated with labeled HaCaT cells for 15 min before adding directly to the incubation medium (PBS). The selective EMT inhibitor, OMDM-1 (40 µM), was used as positive control.

[8] = target: T4, Human FAAH (Homo sapiens, UniProt O00519); assay: Human FAAH assay; type: biochemical; conditions: positive control 100 nM; read-out: Mean ± SEM % inhibition of control, Human FAAH
T4 construct: purchased Cayman Chemical Company
Description: (§3) Mouse brain was homogenized in 50 mM Tris-HCl (pH 7.4) using a glass potter, centrifuged at 1000 g for 10 min, and the pellet was discarded. The supernatant (50 µg) was incubated with [^14C]-AEA (10 µM) (ARC, MO, USA) at 37°C for 15 min (Tris-HCl, pH 9.0) and reactions were stopped with a 2:1 (v/v) mixture of chloroform/methanol. [^14C]-ethanolamine release in the aqueous phase was measured as previously reported. Mouse supernatants (50 µg) were preincubated with RG7774 (10 µM) for 15 min and added directly to the incubation medium. Purified human FAAH (1.7 µg; Cayman Chemical Company, MI, USA) was incubated with [^14C]-AEA (10 µM) (ARC, MO, USA) at 37°C for 15 min (pH 9.0), as previously described. […] for 15 min with 8 different concentrations of RG7774 (0.1-500 µM) and added directly to the incubation medium (250 µL). Control experiments was carried out in the presence of the FAAH inhibitor, URB-597 (100 nM).

[9] = target: T5, Mouse FAAH (Mus musculus, UniProt O08914); assay: Mouse FAAH assay (brain); type: biochemical; conditions: positive control 100 nM; read-out: Mean ± SEM % inhibition of control, Mouse FAAH
T5 construct: Mouse brain was homogenized in 50 mM Tris-HCl (pH 7.4); from tissue; host or cells: mouse brain, 1000 g supernatant
Description: as §3

[10] = test system: Jurkat cells; assay: xCELLigence impedance assay in Jurkat cells; type: cell-based, human; conditions: co-treatment with RG7774
Description: Background impedance was determined in 96-well RTCA E-plates (Agilent Technologies, Santa Clara, CA, United States) coated with 150 μg/mL fibronectin/H2O (Sigma-Aldrich, St. Louis, MO, United States) and containing 50 μL RPMI 1640 assay medium (Fisher Scientific, Schwerte, Germany) 31870) with 10% fetal calf serum (FCS). Jurkat cells (200,000 cells per well) were seeded in 100 μL of growth medium, allowed to settle for 30 min at RT, and cultured overnight at 37°C and 5% CO2. Dose-response curves were generated by adding increasing concentrations of RG7774 to seeded Jurkat cells and performing impedance measurements (xCelligence RTCA M, Agilent Technologies, Santa Clara, CA, United States) at baseline and 1 h after treatment. Displacement experiments were performed by incubating seeded Jurkat cells with 10 μM SR144528, a CB2R-selective antagonist (Tocris Bioscience, Bristol, United Kingdom) or 10 μM RO6851228 (a CB2R-selective inverse agonist; in-house synthesis) in assay medium overnight at 37°C and 5% CO2. Cells were re-treated with 10 μM SR144528 or […] for 1 h and stimulated with 233 nM RG7774 in assay medium. […] Displacement data are presented as the percentage of the maximal normalized cell index determined after antagonist/inverse agonist treatment relative to the percentage of the normalized cell index at 109 nM RG7774 treatment.

T3 sequence (P18054 whole entry): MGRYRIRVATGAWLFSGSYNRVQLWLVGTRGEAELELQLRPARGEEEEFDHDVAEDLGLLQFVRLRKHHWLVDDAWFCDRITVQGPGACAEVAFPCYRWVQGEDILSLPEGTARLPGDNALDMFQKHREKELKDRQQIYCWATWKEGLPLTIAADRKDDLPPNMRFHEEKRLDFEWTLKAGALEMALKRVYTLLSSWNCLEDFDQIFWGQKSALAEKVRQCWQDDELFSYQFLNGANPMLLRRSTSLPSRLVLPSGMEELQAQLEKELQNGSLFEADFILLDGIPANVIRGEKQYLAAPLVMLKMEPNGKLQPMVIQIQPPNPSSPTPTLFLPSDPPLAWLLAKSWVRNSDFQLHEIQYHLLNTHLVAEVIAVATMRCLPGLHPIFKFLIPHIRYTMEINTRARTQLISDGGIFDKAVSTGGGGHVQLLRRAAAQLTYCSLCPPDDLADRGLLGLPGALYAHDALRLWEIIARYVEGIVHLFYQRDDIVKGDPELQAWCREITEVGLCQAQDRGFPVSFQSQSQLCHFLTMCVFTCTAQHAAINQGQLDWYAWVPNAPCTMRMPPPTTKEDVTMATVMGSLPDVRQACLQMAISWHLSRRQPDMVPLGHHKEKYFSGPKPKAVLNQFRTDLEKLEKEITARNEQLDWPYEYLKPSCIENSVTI
Chain of Mouse CB1R (P47746 whole entry): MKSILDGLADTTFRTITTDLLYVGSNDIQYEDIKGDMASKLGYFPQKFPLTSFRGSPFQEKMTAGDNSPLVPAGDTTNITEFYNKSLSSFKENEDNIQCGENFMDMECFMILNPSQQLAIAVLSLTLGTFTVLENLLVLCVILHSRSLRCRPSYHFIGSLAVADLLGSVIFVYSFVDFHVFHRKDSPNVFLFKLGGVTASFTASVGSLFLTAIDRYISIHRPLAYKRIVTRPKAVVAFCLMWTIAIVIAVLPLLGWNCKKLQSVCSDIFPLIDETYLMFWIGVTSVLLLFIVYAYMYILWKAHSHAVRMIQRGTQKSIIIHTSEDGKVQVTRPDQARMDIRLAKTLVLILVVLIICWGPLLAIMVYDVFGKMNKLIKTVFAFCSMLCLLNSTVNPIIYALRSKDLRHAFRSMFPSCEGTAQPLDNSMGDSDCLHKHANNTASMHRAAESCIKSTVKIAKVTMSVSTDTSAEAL
T4 sequence (O00519 whole entry): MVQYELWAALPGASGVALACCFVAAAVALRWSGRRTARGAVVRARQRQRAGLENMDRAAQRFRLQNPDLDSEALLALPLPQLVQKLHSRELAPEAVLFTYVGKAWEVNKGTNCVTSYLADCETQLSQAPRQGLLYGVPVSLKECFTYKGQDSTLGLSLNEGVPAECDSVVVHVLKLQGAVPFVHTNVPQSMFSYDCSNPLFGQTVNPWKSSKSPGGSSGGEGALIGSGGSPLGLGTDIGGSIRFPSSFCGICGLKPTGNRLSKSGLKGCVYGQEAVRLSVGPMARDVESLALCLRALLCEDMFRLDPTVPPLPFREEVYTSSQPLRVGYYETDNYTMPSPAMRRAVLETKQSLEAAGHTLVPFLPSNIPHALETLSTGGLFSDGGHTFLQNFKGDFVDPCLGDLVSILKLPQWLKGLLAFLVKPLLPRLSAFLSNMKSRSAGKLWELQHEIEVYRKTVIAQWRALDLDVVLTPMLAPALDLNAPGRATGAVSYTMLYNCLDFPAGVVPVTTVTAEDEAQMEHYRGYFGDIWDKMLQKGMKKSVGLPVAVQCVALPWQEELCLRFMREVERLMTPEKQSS
T2 sequence (P09917 whole entry): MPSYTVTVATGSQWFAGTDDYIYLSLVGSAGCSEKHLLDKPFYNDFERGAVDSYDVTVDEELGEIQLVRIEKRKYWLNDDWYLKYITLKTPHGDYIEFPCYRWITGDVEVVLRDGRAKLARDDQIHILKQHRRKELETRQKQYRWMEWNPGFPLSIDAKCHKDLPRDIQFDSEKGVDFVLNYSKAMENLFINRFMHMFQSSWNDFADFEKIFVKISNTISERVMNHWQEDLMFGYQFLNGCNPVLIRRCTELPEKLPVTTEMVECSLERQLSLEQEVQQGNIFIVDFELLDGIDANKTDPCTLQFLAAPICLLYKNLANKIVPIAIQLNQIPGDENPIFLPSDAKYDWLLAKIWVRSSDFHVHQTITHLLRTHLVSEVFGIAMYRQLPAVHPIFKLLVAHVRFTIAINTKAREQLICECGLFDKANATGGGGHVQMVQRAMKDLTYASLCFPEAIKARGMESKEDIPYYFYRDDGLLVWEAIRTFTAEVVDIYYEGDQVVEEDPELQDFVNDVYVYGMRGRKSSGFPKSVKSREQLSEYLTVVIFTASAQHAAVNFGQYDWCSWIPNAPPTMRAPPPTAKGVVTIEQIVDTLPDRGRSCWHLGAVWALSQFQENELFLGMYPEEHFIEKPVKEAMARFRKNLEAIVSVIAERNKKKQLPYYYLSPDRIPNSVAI
T5 sequence (O08914 whole entry): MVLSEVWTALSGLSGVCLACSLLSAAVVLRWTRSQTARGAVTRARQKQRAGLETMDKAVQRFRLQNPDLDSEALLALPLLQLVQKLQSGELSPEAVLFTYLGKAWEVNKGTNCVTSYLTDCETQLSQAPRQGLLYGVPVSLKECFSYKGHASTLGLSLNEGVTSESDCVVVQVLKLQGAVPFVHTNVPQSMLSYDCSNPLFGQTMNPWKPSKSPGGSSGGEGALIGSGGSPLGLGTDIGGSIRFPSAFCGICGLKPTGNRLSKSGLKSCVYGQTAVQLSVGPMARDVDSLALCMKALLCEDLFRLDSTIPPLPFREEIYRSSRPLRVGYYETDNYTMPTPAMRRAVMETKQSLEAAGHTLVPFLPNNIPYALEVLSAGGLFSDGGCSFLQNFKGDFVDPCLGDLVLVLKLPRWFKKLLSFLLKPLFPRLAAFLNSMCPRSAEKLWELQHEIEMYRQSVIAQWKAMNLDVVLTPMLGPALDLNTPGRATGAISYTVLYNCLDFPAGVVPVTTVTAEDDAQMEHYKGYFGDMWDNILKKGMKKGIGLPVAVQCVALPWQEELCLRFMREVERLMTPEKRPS
T1 sequence (Q99685 whole entry): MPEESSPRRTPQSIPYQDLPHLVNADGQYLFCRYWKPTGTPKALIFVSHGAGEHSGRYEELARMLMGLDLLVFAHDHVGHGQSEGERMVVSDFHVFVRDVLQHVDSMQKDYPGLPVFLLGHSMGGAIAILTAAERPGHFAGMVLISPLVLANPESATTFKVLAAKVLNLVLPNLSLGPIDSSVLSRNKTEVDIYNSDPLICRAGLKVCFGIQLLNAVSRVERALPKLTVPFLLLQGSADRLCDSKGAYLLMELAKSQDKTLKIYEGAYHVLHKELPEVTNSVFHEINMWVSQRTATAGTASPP

## CCCCCCC(C)(C)c1ccc([C@@H]2C[C@H](O)CC[C@H]2CCCO)c(O)c1 [CP-55940, reference compound]
[1]
  inhibition at 0.1 µM: 91.5 ± 2.6%

## CC(C)(C)OC(=O)N1CCN(C(=O)n2cc(-c3ccc(OC(F)(F)F)cc3)nn2)C(c2ccccc2)C1 (stereo not shown) [DO53, reference compound]
[2]
  Mean ± SEM % inhibition of control, Human DAGL: 103.1 ± 13.2%
[3]
  Mean ± SEM % inhibition of control, Mouse DAGL: 60.4 ± 4.3%

## O=C(Oc1ccc([N+](=O)[O-])cc1)N1CCC(C(O)(c2ccc3c(c2)OCO3)c2ccc3c(c2)OCO3)CC1 [JZL-184, reference compound]
[4]
  Mean ± SEM % inhibition of control, Human MAGL: 84.3 ± 3.4%

## CC(Cc1ccc(O)c(O)c1)C(C)Cc1ccc(O)c(O)c1 (stereo not shown) [NDGA, reference compound]
[5]
  Mean ± SEM % inhibition of control, Human 5-LOX: 126.6 ± 2.4%
[6]
  Mean ± SEM % inhibition of control, Human 12-LOX: 84.6 ± 0.7%

## CCCCCCCC/C=C\CCCCCCCC(=O)N[C@H](CO)Cc1ccc(O)cc1 [OMDM-1, reference compound]
[7]
  Mean ± SEM % inhibition of control, Human EMT: 95.5 ± 0.4%

## NC(=O)c1cccc(-c2cccc(OC(=O)NC3CCCCC3)c2)c1 [URB-597, reference compound]
[8]
  inhibition at 0.1 µM: 92.8 ± 6.1%
[9]
  inhibition at 0.1 µM: 83.2 ± 4.6%

## SR144528 [reference compound]
[10]
  inhibition of RG7774-induced increase in maximal normalized cell index: fully inhibited
